Reference: patent US20230374035A1, “RAS INHIBITORS” (Revolution Medicines, Inc., priority 2019, published 2023)
Read-outs that look alike come from different tables or passages of the source.

Columns and labels:
NRAS Q61R = NRAS Q61R (Homo sapiens, UniProt P01111+P62937, Q61R); test: Disruption of BRAF RBD interaction with Ras (FRET / MOA assay); assay type: biochemical; settings: read-out: NRAS Q61R FRET data IC50
Method: (§1) Compound is present in plate wells as a 10-point 3-fold dilution series starting at a final concentration of 30 μM. […] Compounds that facilitate disruption of a Ras:RAF complex are identified as those eliciting a decrease in the TR-FRET ratio relative to DMSO control wells.
(§2) Note—The following protocol describes a procedure for monitoring disruption of K-Ras G12C (GMP-PNP) binding to BRAF^RBD by a compound of the invention. This protocol may also be executed substituting other Ras proteins or nucleotides.
(§3) The purpose of this biochemical assay was to measure the ability of test compounds to facilitate ternary complex formation between a nucleotide-loaded K-Ras isoform and Cyclophilin A; the resulting ternary complex disrupts binding to a BRAF^RBD construct, inhibiting K-Ras signaling through a RAF effector. Data is reported as IC50 values.
(§4) Compound was present in plate wells as a 10-point 3-fold dilution series starting at a final concentration of 30 μM. […] Compounds that facilitate disruption of a K-Ras:RAF complex were identified as those eliciting a decrease in the TR-FRET ratio relative to DMSO control wells.

NRAS Q61K = NRAS Q61K (Homo sapiens, UniProt P01111+P62937, Q61K); test: as above; assay type: biochemical; settings: read-out: NRAS Q61K FRET data IC50
Method: as §1, §2, §3, §4

NCI-H358 (K-Ras G12C) = test: CellTiter-Glo Cell Viability Assay; assay type: cell-based; settings: Homo sapiens, NCI-H358, 120 h; H358, 5-day treatment
Method: Determination of Cell Viability in RAS Mutant Cancer Cell Lines
Protocol: CellTiter-Glo® Cell Viability Assay
Note—The following protocol describes a procedure for monitoring cell viability of K-Ras mutant cancer cell lines in response to a compound of the invention. Other RAS isoforms may be employed, though the number of cells to be seeded will vary based on cell line used.
Test compounds (132.5 nl) were directly dispensed into the assay plates containing cells. […] On day 5, assay plates and their contents were equilibrated to room temperature for approximately 30 minutes. […] Luminescence was measured using the PerkinElmer Enspire. Data were normalized by the following: (Sample signal/Avg. DMSO)*100. The data were fit using a four-parameter logistic fit.

KRAS G12C = KRAS G12C (Homo sapiens, UniProt P01116+P62937, G12C); test: Disruption of BRAF RBD interaction with K-Ras (FRET / MOA assay); assay type: biochemical
Method: as §1, §2, §3, §4

KRAS Q61H = KRAS Q61H (Homo sapiens, UniProt P01116+P62937, Q61H); test: as above; assay type: biochemical; settings: read-out: KRAS Q61H FRET data IC50
Method: as §1, §2, §3, §4

[1] = read-out: KRAS G12C FRET data IC50

NRAS Q61K, sequence (P01111 whole entry Q61K): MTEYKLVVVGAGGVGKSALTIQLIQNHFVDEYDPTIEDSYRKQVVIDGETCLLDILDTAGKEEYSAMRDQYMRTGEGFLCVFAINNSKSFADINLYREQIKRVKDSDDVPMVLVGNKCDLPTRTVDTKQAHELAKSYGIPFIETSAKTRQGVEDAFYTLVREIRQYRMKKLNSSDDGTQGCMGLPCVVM
NRAS Q61K, sequence (P62937 whole entry): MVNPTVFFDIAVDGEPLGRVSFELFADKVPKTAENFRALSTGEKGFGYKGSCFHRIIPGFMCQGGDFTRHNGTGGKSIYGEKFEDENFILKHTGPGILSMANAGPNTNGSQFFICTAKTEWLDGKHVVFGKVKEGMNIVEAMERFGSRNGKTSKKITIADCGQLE
NRAS Q61R, sequence (P01111 whole entry Q61R): as the sequence (P01111 whole entry Q61K) above, with K61R counted along it
NRAS Q61R, sequence (P62937 whole entry): as the sequence (P62937 whole entry) above
KRAS G12C, sequence (P01116 1-188 isoform P01116-2 G12C): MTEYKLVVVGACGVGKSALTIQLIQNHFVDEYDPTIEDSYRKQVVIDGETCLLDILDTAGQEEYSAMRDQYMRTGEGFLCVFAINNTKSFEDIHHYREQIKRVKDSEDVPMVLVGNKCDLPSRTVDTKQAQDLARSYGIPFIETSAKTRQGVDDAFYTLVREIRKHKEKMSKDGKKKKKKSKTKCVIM
KRAS G12C, sequence (P62937 whole entry): as the sequence (P62937 whole entry) above
KRAS Q61H, sequence (P01116 1-188 isoform P01116-2 Q61H): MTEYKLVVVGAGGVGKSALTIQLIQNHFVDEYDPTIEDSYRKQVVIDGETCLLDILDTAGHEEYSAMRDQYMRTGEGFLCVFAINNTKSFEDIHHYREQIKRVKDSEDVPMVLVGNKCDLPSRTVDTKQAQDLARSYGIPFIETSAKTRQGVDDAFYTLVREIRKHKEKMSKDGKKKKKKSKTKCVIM
KRAS Q61H, sequence (P62937 whole entry): as the sequence (P62937 whole entry) above

Row | IC50 (NRAS Q61R) [nM] | IC50 (NRAS Q61K) [nM] | SMILES | IC50 (KRAS G12C; [1]) [nM] | other results
1 | 10 to 100 | 10 to 100 | CCn1c(-c2cc(N3CCN(C)CC3)cnc2[C@H](C)OC)c2c3cc(ccc31)-c1csc(n1)C[C@H](NC(=O)[C@H](C(C)C)N(C)C(=O)N1CC(OC)C1)C(=O)N1CCC[C@H](N1)C(=O)OCC(C)(C)C2 (atropisomer, axis not shown) [Compound A466] | – | IC50 (NCI-H358 (K-Ras G12C)): < 10 nM
2 | 10 to 100 | 10 to 100 | CCn1c(-c2cccnc2[C@H](C)OC)c2c3cc(ccc31)-c1csc(n1)C[C@H](NC(=O)[C@H](C(C)C)N(C)C(=O)N1CCN3C(=O)CN(C)C[C@@H]3C1)C(=O)N1CCC[C@H](N1)C(=O)OCC(C)(C)C2 (atropisomer, axis not shown) [Compound A536] | – | IC50 (NCI-H358 (K-Ras G12C)): < 10 nM
3 | – | – | CCn1c(-c2cccnc2[C@H](C)OC)c2c3cc(ccc31)-c1cc(O)cc(c1)C[C@H](NS(=O)(=O)CC1CC1)C(=O)N1CCC[C@H](N1)C(=O)OCC(C)(C)C2 (racemic) [Compound A200] | > 10000 | –
4 | 10 to 100 | 10 to 100 | CCn1c(-c2cccnc2[C@H](C)OC)c2c3cc(ccc31)-c1csc(n1)C[C@H](NC(=O)[C@H](C(C)C)N(C)C(=O)N1C[C@H]3COC[C@H]3C1)C(=O)N1CCC[C@H](N1)C(=O)OCC(C)(C)C2 (atropisomer, axis not shown) [Compound A312] | – | –
5 | – | – | CCn1c(-c2cccnc2[C@H](C)OC)c2c3cc(ccc31)-c1cc(O)cc(c1)C[C@H](NS(=O)(=O)N1CCOCC1)C(=O)N1CCC[C@H](N1)C(=O)OCC(C)(C)C2 (racemic) [Compound A194] | – | IC50 (KRAS G12C): > 10000 nM
6 | – | – | CCn1c(-c2cccnc2[C@H](C)OC)c2c3cc(ccc31)-c1cc(O)cc(c1)C[C@H](NS(=O)(=O)C1CC1)C(=O)N1CCC[C@H](N1)C(=O)OCC(C)(C)C2 (racemic) [Compound A196] | > 10000 | –
7 | 10 to 100 | 10 to 100 | CCn1c(-c2cccnc2[C@H](C)OC)c2c3cc(ccc31)-c1csc(n1)C[C@H](NC(=O)[C@H](C(C)C)N(C)C(=O)N1CC(Cc3cnn(C)c3)C1)C(=O)N1CCC[C@H](N1)C(=O)OCC(C)(C)C2 (atropisomer, axis not shown) [Compound A500] | – | IC50 (NCI-H358 (K-Ras G12C)): < 10 nM
8 | – | – | CCn1c(-c2cccnc2[C@H](C)OC)c2c3cc(ccc31)-c1cc(O)cc(c1)C[C@H](NS(=O)(=O)c1ccc(O)cc1)C(=O)N1CCC[C@H](N1)C(=O)OCC(C)(C)C2 (racemic) [Compound A195] | > 10000 | –
9 | – | – | CCn1c(-c2cccnc2[C@H](C)OC)c2c3cc(ccc31)-c1cc(cc3nc[nH]c13)C[C@H](NC(=O)[C@H](C(C)C)N(C)C(C)=O)C(=O)N1CCC[C@H](N1)C(=O)OCC(C)(C)C2 (racemic) [Compound A153] | > 10000 | –
10 | 10 to 100 | 10 to 100 | CCn1c(-c2cccnc2[C@H](C)OC)c2c3cc(ccc31)-c1csc(n1)C[C@H](NC(=O)[C@H](C(C)C)N(C)C(=O)N1CCC13COC3)C(=O)N1CCC[C@H](N1)C(=O)OCC(C)(C)C2 (atropisomer, axis not shown) [Compound A560] | – | –
11 | – | – | CCn1c(-c2cccnc2[C@H](C)OC)c2c3cc(ccc31)-c1csc(n1)C[C@H](NC(=O)[C@H](C(C)C)N(C)C(=O)[C@H]1CCN(S(C)(=O)=O)C1)C(=O)N1CCC[C@H](N1)C(=O)OCC(C)(C)C2 (racemic) [Compound A237] | – | IC50 (KRAS Q61H): 1000 to 10000 nM

Row | SMILES | IC50 (NRAS Q61R) [nM] | IC50 (NRAS Q61K) [nM] | IC50 (KRAS G12C; [1]) [nM] | other results
12 | CCn1c(-c2cccnc2[C@H](C)OC)c2c3cc(ccc31)-c1csc(n1)C[C@H](NC(=O)[C@H](C(C)C)N(C)C(=O)N1CCC(C(=O)C(F)(F)F)CC1)C(=O)C1CCC[C@H](N1)C(=O)OCC(C)(C)C2 [Compound A422] | 10 to 100 | 10 to 100 | – | –
13 | CCn1c(-c2cccnc2[C@H](C)OC)c2c3cc(ccc31)-c1csc(n1)C[C@H](NC(=O)[C@H](C(C)C)N1CCC3(CN(S(C)(=O)=O)C3)C1=O)C(=O)N1CCC[C@H](N1)C(=O)OCC(C)(C)C2 (racemic) [Compound A234] | > 10000 | – | > 10000 | IC50 (KRAS Q61H): 1000 to 10000 nM
14 | CCn1c(-c2cccnc2[C@H](C)OC)c2c3cc(ccc31)-c1cc(O)cc(c1)C[C@H](NC(=O)[C@H](C(C)C)N(C)C(=O)C1(C(=O)O)CC1)C(=O)N1CCC[C@H](N1)C(=O)OCC(C)(C)C2 (racemic) [Compound A150] | > 10000 | – | – | IC50 (KRAS Q61H): 1000 to 10000 nM
